Molecular target: VapBC26 protein complex (Mycobacterium tuberculosis, UniProt O53778)
Sequence (O53778 whole entry, one chain of several): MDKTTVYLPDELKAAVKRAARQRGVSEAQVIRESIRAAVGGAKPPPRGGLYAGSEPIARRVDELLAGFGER

Sequence | concentration of VapBC26 from which the results of RFU were similar | inhibition of VapBC26 toxin-antitoxin complex formation (binding inhibitor, seen as increased ribonuclease activity) | ribonuclease activity of VapBC26 compared with addition of SEQ. ID. NO: 11 and SEQ. ID. NO: 13 peptides
DAELAVLRELAG [mimetic peptide for VapC26 α4] | ≥ 10 µM | acted as a VapBC26 binding inhibitor | more increased
PYVVAELDYLVATRVG [mimetic peptide for VapC26 α3] | – | acted as a VapBC26 binding inhibitor | –
YLVATRVGVDAELAV | – | acted as a VapBC26 binding inhibitor | –

Source: patent publication US11795199B2, “Peptide targeting Mycobacterium tuberculosis toxin-antitoxin system and use thereof” (Seoul National University R&DB Foundation, priority 2017, dated 2023)
